Source: ChEMBL document CHEMBL5584313, “Design and Synthesis of 7-Oxabicyclo[2.2.1]heptane-2,3-dicarboxylic Acid Derivatives as PP5 Inhibitors To Reverse Temozolomide Resistance in Glioblastoma Multiforme” (J Med Chem, 2024)
Active and inactive are the calls of the source. The rule behind the calls is not given here. Starred links: 1 amine or outer side, 2 acyl side, 3 side chain; linkers in the order of their positions; H or OH if unused. Positions of bridges follow the written chain, without caps; N, C: chain ends. Non-standard residues stand in square brackets, D forms with d. Residues, ends and D or L forms follow the SMILES beside them. Adda = CO[C@@H](Cc1ccccc1)[C@@H](C)/C=C(C)/C=C/[C@H](N[*:1])[C@H](C)C(=O)[*:2]; dAsp(3S-Me) = C[C@H](C(=O)[*:3])[C@@H](N[*:1])C(=O)[*:2]; d(γGlu) = O=C(O)[C@@H](CCC(=O)[*:2])N[*:1]; NMeDha = C=C(NC)C(=O)O

Experiments:
[1] = Inhibition of bovine PP2A using [32P]-phosphohistone as substrate preincubated for 10 mins followed by substrate addition; parameters: species or system Bos taurus
[2] = test system: HCT-116; experiment: Cytotoxicity against human HCT-116 cells incubated for 48 hrs by CCK8 assay; assay type: functional, cell-based; conditions: HCT-116, 48 h
[3] = Stability in mouse plasma assessed as half life measured upto 300 mins by LC-MS/MS analysis; assay type: ADME, cell-free
[4] = test system: U-87 MG; experiment: Antitumor activity against human U-87 MG cells xenografted in BALB/c nude mouse assessed as reduction in MGMT expression at 1.5 to 3 mg/kg, po measured after 4 hrs in presence of 40 mg/kg TMZ by Western blotting analysis; assay type: functional, organism-based; conditions: U-87MG ATCC, dose 1.5-3 mg/kg
[5] = test system: U-87 MG; experiment: Induction of apoptosis in human U-87 MG cells assessed as G0/G1 phase cells at 5 uM incubated for 24 hrs by propidium iodide staining based flow cytometry analysis (reference value: 58.8%); assay type: functional, U-87MG ATCC
[6] = test system: U-87 MG; experiment: Antitumor activity against human U-87 MG cells xenografted in BALB/c nude mouse assessed as tumor growth inhibition at 3 mg/kg, po administered every other day for 18 days in presence of 40 mg/kg TMZ; assay type: functional, U-87MG ATCC; conditions: 432 h, time 18 day, read-out: TGI
[7] = test system: U-87 MG; experiment: Induction of apoptosis in human U-87 MG cells assessed as G2/M phase cells at 5 uM incubated for 24 hrs by propidium iodide staining based flow cytometry analysis (reference value: 11.9%); assay type: functional, U-87MG ATCC
[8] = species on record: Homo sapiens; experiment: Selectivity ratio of IC50 for PP2A (unknown origin ) to IC50 for PP5 (unknown origin)
[9] = Aqueous stability of compound assessed as compound remaining measured at 240 mins by HPLC assay; assay type: physicochemical; conditions: aqueous solution, read-out: Stability
[10] = Toxicity in BALB/c nude mouse xenografted with U-87 MG cells assessed as kidney damage at 3 mg/kg, po administered every other day for 18 days in presence of 40 mg/kg TMZ by H and E staining based assay; assay type: organism-based; conditions: in vivo, 432 h, time 18 day
[11] = test system: U-87 MG; experiment: Induction of apoptosis in human U-87 MG cells assessed as S phase cells at 25 uM incubated for 24 hrs in presence of TMZ by propidium iodide staining based flow cytometry analysis (reference value: 29.4%); assay type: functional, U-87MG ATCC
[12] = Cytotoxicity against human BEAS-2B incubated for 48 hrs by CCK8 assay; assay type: toxicity, cell-based; conditions: BEAS-2B cells
[13] = test system: U-87MG ATCC; experiment: Downregulation of cyclin D1 expression in human U-87 MG cells at 25 uM incubated for 24 hrs in presence TMZ by Western blotting analysis; assay type: functional, cell-based
[14] = molecular target: T1, Serine/threonine-protein phosphatase 5 (Homo sapiens, UniProt P53041); experiment: Inhibition of human PPP5C (169 to 499 residues) expressed in Escherichia coli using [32P]-phosphohistone as substrate preincubated for 10 mins followed by substrate addition
T1 sequence (P53041 whole entry): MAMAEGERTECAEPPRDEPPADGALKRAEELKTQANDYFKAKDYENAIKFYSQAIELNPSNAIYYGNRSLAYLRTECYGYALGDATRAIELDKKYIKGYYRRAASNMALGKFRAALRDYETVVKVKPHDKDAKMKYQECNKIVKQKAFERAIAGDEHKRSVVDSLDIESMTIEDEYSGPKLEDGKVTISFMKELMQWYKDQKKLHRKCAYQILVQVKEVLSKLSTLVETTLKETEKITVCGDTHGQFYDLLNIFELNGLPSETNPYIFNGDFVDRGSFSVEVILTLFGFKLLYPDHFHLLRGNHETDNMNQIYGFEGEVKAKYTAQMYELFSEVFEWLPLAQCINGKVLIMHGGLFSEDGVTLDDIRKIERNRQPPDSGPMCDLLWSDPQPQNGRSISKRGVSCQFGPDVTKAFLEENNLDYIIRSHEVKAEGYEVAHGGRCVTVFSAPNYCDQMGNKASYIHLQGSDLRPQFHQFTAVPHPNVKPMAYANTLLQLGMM

[15] = Aqueous stability of compound assessed as compound remaining measured at 10 mins by HPLC assay; assay type: physicochemical; conditions: aqueous solution, read-out: Stability
[16] = Toxicity in BALB/c nude mouse xenografted with U-87 MG cells assessed as kidney damage at 3 mg/kg, po administered every other day for 18 days by H and E staining based assay; assay type: organism-based; conditions: in vivo, 432 h, time 18 day
[17] = test system: U-87 MG; experiment: Induction of apoptosis in human U-87 MG cells assessed as G0/G1 phase cells at 25 uM incubated for 24 hrs in presence of TMZ by propidium iodide staining based flow cytometry analysis (reference value: 58.8%); assay type: functional, U-87MG ATCC
[18] = species on record: Homo sapiens; experiment: Selectivity ratio of IC50 for PP1 (unknown origin ) to IC50 for PP5 (unknown origin)
[19] = test system: U-87MG ATCC; experiment: Upregulation of p53 expression in human U-87 MG cells at 6.25 to 100 uM after 24 hrs by Western blotting analysis; assay type: functional, cell-based; conditions: dose 6.25-100 µM
[20] = Stability of compound in water assessed as remaining compound after 24 hrs; assay type: physicochemical; conditions: read-out: Stability
[21] = Aqueous stability of compound assessed as compound remaining measured at 30 mins by HPLC assay; assay type: physicochemical; conditions: aqueous solution, read-out: Stability
[22] = test system: U-87 MG; experiment: Induction of apoptosis in human U-87 MG cells assessed as S phase cells at 5 uM incubated for 24 hrs by propidium iodide staining based flow cytometry analysis (reference value: 29.4%); assay type: functional, U-87MG ATCC
[23] = Aqueous stability of compound assessed as compound remaining measured at 480 mins by HPLC assay; assay type: physicochemical; conditions: aqueous solution, read-out: Stability
[24] = Toxicity in BALB/c nude mouse xenografted with U-87 MG cells assessed as liver damage at 3 mg/kg, po administered every other day for 18 days in presence of 40 mg/kg TMZ by H and E staining based assay; assay type: organism-based; conditions: in vivo, 432 h, time 18 day
[25] = Aqueous stability of compound assessed as compound remaining measured at 60 mins by HPLC assay; assay type: physicochemical; conditions: aqueous solution, read-out: Stability
[26] = Toxicity in BALB/c nude mouse xenografted with U-87 MG cells assessed as liver damage at 3 mg/kg, po administered every other day for 18 days by H and E staining based assay; assay type: organism-based; conditions: in vivo, 432 h, time 18 day
[27] = Inhibition of PP2A in human U-87 MG cell lysate using RRA(pT)VA as substrate; assay type: subcellular
[28] = Cytotoxicity against HUVECs incubated for 48 hrs by CCK8 assay; assay type: toxicity, cell-based; conditions: human, HUVEC cells
[29] = Aqueous stability of compound assessed as compound remaining measured at 120 mins by HPLC assay; assay type: physicochemical; conditions: aqueous solution, read-out: Stability
[30] = test system: U-87 MG; experiment: Cytotoxicity against human U-87 MG cells incubated for 48 hrs by CCK8 assay; assay type: functional, cell-based, U-87MG ATCC
[31] = test system: A549; experiment: Cytotoxicity against human A549 cells incubated for 48 hrs by CCK8 assay; assay type: functional, cell-based; conditions: A549, 48 h
[32] = Cytotoxicity against HEK293T cells incubated for 48 hrs by CCK8 assay; assay type: toxicity, cell-based, HEK-293T; conditions: human
[33] = test system: U-87 MG; experiment: Induction of apoptosis in human U-87 MG cells assessed as G2/M phase cells at 25 uM incubated for 24 hrs in presence of TMZ by propidium iodide staining based flow cytometry analysis (reference value: 11.9%); assay type: functional, U-87MG ATCC
[34] = Inhibition of PP2A (unknown origin)

Work on `CN1CCN(C(=O)[C@@H]2[C@H](C(=O)O)[C@H]3CC[C@@H]2O3)CC1` yielded an IC50 [1] of 0.009 µM, an IC50 [2] of 10.1 µM and a half-life [3] of 5.03 h. For the same compound, the Activity [4] was “inactive”, the Activity [5] was 57.4% and the inhibition in vivo at 3 mg/kg [6] was 46.2%. It also gave an Activity [7] of 14.4%, a Ratio IC50 [8] of 0.1 and a remaining at 4 h [9] of 45.6%. The Activity [10] was “Toxic”, the Activity [11] was 11.8% and the IC50 at 48 h [12] was 3.5 µM. For the same compound, the Activity [13] was “inactive”, the IC50 [14] was 3 µM and the remaining at 10 min [15] was 93%. The Activity [16] was “Toxic”, the Activity [17] was 52.6% and the Ratio IC50 [18] was 0.7. For the same compound, the Activity [19] was “inactive”, the remaining at 24 h [20] was 5.3% and the remaining at 0.5 h [21] was 79%. For the same compound, the Activity [22] was 28.4%, the remaining at 8 h [23] was 14% and the Activity [24] was “Toxic”. The remaining at 1 h [25] was 68%, the Activity [26] was “Toxic” and the IC50 [27] was 1 µM. It also gave an IC50 at 48 h [28] of 9.7 µM, a remaining at 2 h [29] of 50% and an IC50 [30] of 25.6 µM. It also gave an IC50 [31] of 8.8 µM, an IC50 at 48 h [32] of 26.6 µM and an Activity [33] of 22.9%.

With `O=CN1CCN(C(=O)[C@@H]2[C@H](C(=O)O)[C@H]3CC[C@@H]2O3)CC1` the remaining at 4 h [9] was 80.3%.

With `O=C(O)[C@@H]1[C@H](C(=O)N2CCc3ccccc32)[C@H]2CC[C@@H]1O2` the remaining at 4 h [9] was 52.8%.

`O=C(O)[C@@H]1[C@H](C(=O)N2CCN(c3ccccc3)CC2)[C@H]2CC[C@@H]1O2` gave a remaining at 4 h [9] of 93%.

`C=C1C(=O)N[C@H](C)C(=O)N[C@@H](CC(C)C)C(=O)N[C@@H](C(=O)O)[C@H](C)C(=O)N[C@@H](CCCNC(=N)N)C(=O)N[C@@H](/C=C/C(C)=C/[C@H](C)[C@H](Cc2ccccc2)OC)[C@H](C)C(=O)N[C@@H](C(=O)O)CCC(=O)N1C` [MICROCYSTIN-LR] (R[Adda][d(γGlu)][NMeDha][dA]L[dAsp(3S-Me)]-OH; lactam N-7) gave an IC50 [34] of 0.04 nM.

`O=C(O)[C@@H]1[C@H](C(=O)N2CC=CC2)[C@H]2CC[C@@H]1O2` showed a remaining at 4 h [9] of 35.7%.

`O=C(O)[C@@H]1[C@H](C(=O)NC2CCCC2)[C@H]2CC[C@@H]1O2` showed a remaining at 4 h [9] of 72.2%.

In the case of `C/C=C1/C(=O)N[C@@H](C(=O)O)[C@H](C)C(=O)N[C@@H](CCCNC(=N)N)C(=O)N[C@@H](/C=C/C(C)=C/[C@H](C)[C@H](Cc2ccccc2)OC)[C@H](C)C(=O)N[C@@H](C(=O)O)CCC(=O)N1C` [NODULARIN], the IC50 [34] is reported as 0.3 nM.

In the case of `C[C@@](O)(/C=C/[C@H]1CC=CC(=O)O1)[C@@H](C[C@@H](O)\C=C/C=C\C=C\CO)OP(=O)(O)O` [FOSTRIECIN], the IC50 [34] is reported as 1.5 nM.

For `O=C(O)[C@H]1[C@@H](C(=O)N2Cc3ccccc3C2)[C@@H]2CC[C@H]1O2`, the remaining at 4 h [9] was 46.4%.
